{"source": "ChEMBL document CHEMBL4393720", "about": "“Design, synthesis and biological evaluation of bromophenol-thiazolylhydrazone hybrids inhibiting the interaction of translation initiation factors eIF4E/eIF4G as multifunctional agents for cancer treatment” (Eur J Med Chem, 2019)", "key": {"[1]": {"experiment": "Subacute toxicity in SPF Kunming mouse assessed as heart morphological changes at 2000 mg/kg, po administered once a day for 14 days by H and E staining based microscopic analysis", "assay_type": "organism-based", "details": "in vivo, 336 h"}, "[2]": {"test_system": "A549", "experiment": "Induction of autophagy in human A549 cells assessed as change in ULK1 expression at 1 to 5 uM incubated for 48 hrs by Western blot analysis", "assay_type": "functional, cell-based"}, "[3]": {"experiment": "Acute toxicity in SPF Kunming mouse assessed as body weight at 1000 mg/kg, po administered as single dose measured at day 7 (reference value: 30.2g)", "assay_type": "organism-based", "details": "in vivo"}, "[4]": {"experiment": "Toxicity in athymic nude mouse xenografted with human A549 cells assessed as effect on spleen morphological changes at 25 to 50 mg/kg, ip administered once daily for 21 days by H and E staining based assay", "assay_type": "organism-based", "details": "in vivo, 504 h"}, "[5]": {"experiment": "MRT in female Sprague-Dawley rat at 10 mg/kg, po measured up to 24 hrs by LC/MS-MS analysis", "assay_type": "ADME, organism-based", "details": "in vivo"}, "[6]": {"experiment": "Inhibition of PI3K/Akt/mTOR signalling pathway in human A549 cells assessed as reduction in PI3K phosphorylation at 1 to 5 uM incubated for 48 hrs by Western blot analysis", "assay_type": "cell-based"}, "[7]": {"experiment": "Volume of distribution in steady state in male Sprague-Dawley rat at 2 mg/kg, iv measured up to 24 hrs by LC/MS-MS analysis", "assay_type": "ADME, organism-based", "details": "in vivo, read-out: Vdss"}, "[8]": {"test_system": "A549", "experiment": "Induction of mitochondrial membrane potential loss in human A549 cells at 1 to 5 uM incubated for 48 hrs by JC-1 staining based flow cytometer analysis", "assay_type": "functional, cell-based"}, "[9]": {"experiment": "Tmax in male Sprague-Dawley rat at 2 mg/kg, iv measured up to 24 hrs by LC/MS-MS analysis", "assay_type": "ADME, organism-based", "details": "in vivo"}, "[10]": {"experiment": "MRT in female Sprague-Dawley rat at 2 mg/kg, iv measured up to 24 hrs by LC/MS-MS analysis", "assay_type": "ADME, organism-based", "details": "in vivo"}, "[11]": {"test_system": "A549", "experiment": "In vivo inhibition of PI3K/Akt/mTOR signalling pathway in human A549 cells xenografted in athymic nude mouse assessed as decrease in phosphorylation of PI3K at 25 to 50 mg/kg, ip administered once daily for 21 days by Western blot analysis", "assay_type": "functional, organism-based"}}, "note": "Activity calls are given as the source filed them. The calls are words filed in the database; no cut-off is given here.", "data": [{"smiles": "Fc1ccc(/C=N/Nc2nc(-c3ccc(C(F)(F)F)cc3)cs2)cc1F", "values": [{"measurement": "Activity", "setting": "[1]", "value": "Non-Toxic"}, {"measurement": "Activity", "setting": "[2]", "value": "Active"}, {"measurement": "Activity", "setting": "[3]", "value": 30.5, "unit": "g"}, {"measurement": "Activity", "setting": "[4]", "value": "Non-Toxic"}, {"measurement": "MRT", "setting": "[5]", "value": 1.62, "unit": "h"}, {"measurement": "inhibition", "setting": "[6]", "value": "Active"}, {"measurement": "Vd", "setting": "[7]", "value": 0.12, "unit": "L/kg"}, {"measurement": "Activity", "setting": "[8]", "value": "Active"}, {"measurement": "Tmax", "setting": "[9]", "value": 2, "unit": "h"}, {"measurement": "MRT", "setting": "[10]", "value": 5.09, "unit": "h"}, {"measurement": "inhibition", "setting": "[11]", "value": "Active"}]}]}
